Measured values reported in patent publication US20070227557A1, “THICKENED SURFACTANT-FREE CLEANSING AND MULTIFUNCTIONAL LIQUID COATING COMPOSITIONS CONTAINING NONREACTIVE ABRASIVE SOLID PARTICLES AND AN ORGANOSILANE QUATERNARY COMPOUND AND METHODS OF USING” (priority 2005, published 2007).

Test: Thickening / thixotropy of aqueous mixtures
Type: physicochemical
Details: standard test formulation
Procedure: “thixotropic” or “thixotropically” means, with reference to a thickened composition, when applied to a vertical surface, it will cling until disturbed by wiping or massaging in biomechanical cleansing.
The sodium dodecylbenzene sulfonate base employed in Examples 34-46 was prepared as follows: 90.07% (Wt.) of deionized water was placed in the blender beaker and 1.104% sodium hydroxide pellets added and the mixture stirred until all sodium hydroxide dissolved. 8.826% of dodecylbenzene sulfonic acid (98% purity) was added slowly with good stirring until all the dodecylbenzene sulfonic acid dissolved (reacted with the sodium hydroxide). The pH of the resulting solution was […]. The final solution contained 9.42% sodium dodecylbenzene sulfonate. Approximately 450 gms of the base, containing 408 gms of water and 42.4 gms of the sodium dodecylbenzene sulfonate, were used in all the examples of TABLE VI. 124 gms of aluminum oxide grit (A2-325 and P-6 grades from Altmatis) were employed in the compositions of TABLE VI.
The alkyl alcohol ethoxylates were added slowly with good mixing employing a Silverson L4RT-A laboratory mixer with the pump head mixer. As the mixture thickened, addition of the alkyl alcohol ethoxylates was slowed until the thickened mixture had the consistency of whipped cream. If the desired thickening was achieved, it was so noted as “YES”, if not, it was noted as “NO”.

CCCCCCCCCCCCc1ccc(S(=O)(=O)[O-])cc1.[Na+] [sodium docecylbenzene sulfonate]
formation of stable thickened compositions: did form stable thickened compositions

CCCCCCCCCCCCS(=O)(=O)[O-].[Na+] [sodium lauryl (C12) sulfonate]
formation of stable thickened compositions: did not result in stable thickened compositions

CCCCCCCCS(=O)(=O)[O-].[Na+] [sodium octane sulfonate]
formation of stable thickened compositions: did not result in stable thickened compositions

sodium alkyl(C11-16) sulfonate
formation of stable thickened compositions: did not result in stable thickened compositions
